Reference: US7217734B2, “Substituted benzopyrans as selective estrogen receptor-beta agonists” (Eli Lilly and Company, priority 2001, dated 2007)

molecular target: T1, ERbeta Receptor (Homo sapiens, UniProt Q92731); assay: Competition ER binding assay (3H-Estradiol), ER beta; conditions: ratio of Ki ER alpha to Ki ER beta; Ki from IC50 by Cheng-Prusoff equation
T1 construct: purchased Pan Vera
Protocol: The competition ER binding assay was run in a buffer containing 50 mM N-[2-hydroxyethyl]piperazine-N′-[2-ethanesulfonic acid (Hepes) pH 7.5, 1.5 mM EDTA, 150 mM NaCl, 10% glycerol, 1 mg/mL ovalbumin, 5 mM DTT, 0.025 μCi per well of ^3H-Estradiol (NEN #NET517 at 118 Ci/mmol, 1 mCi/mL), and 10 ng/well ERAlpha or ERbeta Receptor (Pan Vera). Competing compounds were added at 10 different concentrations. Non-specific binding was determined in the presence of 1 μM of E2 (17-β Estradiol, Sigma, St. Louis, Mo.). The binding reaction (140 μL) was incubated for 4 hours at room temperature, then 70 μL of cold dextran coated charcoal (DCC) buffer was added to each reaction (DCC buffer was prepared by adding 0.75 g of charcoal [Sigma] and 0.25 g of dextran [Pharmacia] per 50 mL of assay buffer). The incubation plates were mixed for 8 minutes on an orbital shaker at 4° C. and then centrifuged at 3,000 rpm for 10 minutes at 4° C. An aliquot of 120 μl of the mix was transferred to another 96-well, white flat bottom plate (Costar) and 175 μl of Wallac Optiphase Hisafe 3 scintillation fluid was added to each well. The plates were sealed and then shaken vigorously on an orbital shaker. After an incubation of 2.5 hrs, the radioactivity was counted in a Wallac Microbeta counter. […] The Kd for ^3H-Estradiol was determined by saturation binding to ERα and ERβ receptors. The IC50 values for compounds were converted to Ki values using the Cheng-Prusoff equation and the Kd values were determined by saturation binding assay.

T1 sequence (Q92731 whole entry): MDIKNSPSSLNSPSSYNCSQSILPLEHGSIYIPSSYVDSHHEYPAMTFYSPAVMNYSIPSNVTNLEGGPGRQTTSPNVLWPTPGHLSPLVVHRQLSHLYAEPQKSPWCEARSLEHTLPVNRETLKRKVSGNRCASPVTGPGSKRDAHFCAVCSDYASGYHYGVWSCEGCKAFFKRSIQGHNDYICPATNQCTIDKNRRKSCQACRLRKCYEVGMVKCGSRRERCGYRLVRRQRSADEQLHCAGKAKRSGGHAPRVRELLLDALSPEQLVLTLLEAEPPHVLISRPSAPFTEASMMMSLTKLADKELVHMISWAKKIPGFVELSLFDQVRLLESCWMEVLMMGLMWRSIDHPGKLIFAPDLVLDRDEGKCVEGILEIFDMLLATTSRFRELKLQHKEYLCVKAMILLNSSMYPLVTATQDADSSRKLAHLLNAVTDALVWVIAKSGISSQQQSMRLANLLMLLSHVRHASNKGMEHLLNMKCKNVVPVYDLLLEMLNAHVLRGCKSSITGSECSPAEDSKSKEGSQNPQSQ

| Structure (SMILES) | Ki (nM) ER alpha/Ki (nM) ER beta |
| --- | --- |
| Oc1ccc([C@H]2Oc3ccc(O)cc3[C@H]3CCC[C@H]32)cc1 (racemic) [Example 1, (^+)-2-(4-hydroxyphenyl)-6-hydroxy-cyclopentyl[c]3,4-dihydro-2H-1-benzopyran] | 8.0 |
| Oc1ccc([C@H]2Oc3ccc(C(F)(F)F)cc3[C@H]3CCC[C@H]32)cc1 (racemic) [Example 2, (^+)-2-(4-hydroxyphenyl)-6-trifluoromethyl-cyclopentyl[c]3,4-dihydro-2H-1-benzopyran] | 1.4 |
| Cc1ccc2c(c1)[C@H]1CCC[C@H]1[C@@H](c1ccc(O)cc1)O2 (racemic) [Example 3, (^+)-2-(4-hydroxyphenyl)-6-methyl-cyclopentyl[c]3,4-dihydro-2H-1-benzopyran] | 1.2 |
| Oc1ccc([C@H]2Oc3ccc(F)cc3[C@H]3CCC[C@H]32)cc1 (racemic) [Example 4, (^+)-2-(4-hydroxyphenyl)-6-fluoro-cyclopentyl[c]3,4-dihydro-2H-1-benzopyran] | 4.7 |
| Cc1cc(O)cc2c1O[C@H](c1ccc(O)cc1)[C@@H]1CCC[C@H]21 (racemic) [Example 7, (^+)-2-(4-hydroxyphenyl)-6-hydroxy-8-meth 1-cyclopentyl[c]3,4-dihydro-2H-1-benzopyran] | 5.1 |
| COc1cc(O)cc2c1O[C@H](c1ccc(O)cc1)[C@@H]1CCC[C@H]21 (racemic) [Example 9, (^+)-2-(4-hydroxyphenyl)-6-hydroxy-8-methoxy-cyclopentyl[c]3,4-dihydro-2H-1-benzopyran] | 13 |
| CC1(C)CC[C@H]2[C@@H](c3ccc(O)cc3)Oc3ccc(O)cc3[C@H]21 (racemic) [Example 10, (^+)-2-(4-hydroxyphenyl)-6-hydroxy-11,11-dimethyl-cyclopentyl[c]3,4-dihydro-2H-1-benzopyran] | 2.5 |
| CCC1(CC)CC[C@H]2[C@@H](c3ccc(O)cc3)Oc3ccc(O)cc3[C@H]21 (racemic) [Example 11, (^+)-2-(4-hydroxyphenyl)-6-hydroxy-11,11-diethyl-cyclopentyl[c]3,4-dihydro-2H-1-benzopyran] | 1.6 |
| COc1ccc2c(c1)[C@H]1CCC[C@H]1[C@@H](c1ccc(O)cc1)O2 (racemic) [Example 12, (^+)-2-(4-hydroxyphenyl)-6-methoxy-cyclopentyl[c]3,4-dihydro-2H-1-benzopyran] | 2.3 |
| Cc1cc([C@H]2Oc3ccc(O)cc3[C@H]3CCC[C@H]32)ccc1O (racemic) [Example 13, (^+)-2-(4-hydroxy-3-methylphenyl)-6-hydroxy-cyclopentyl[c]3,4-dihydro-2H-1-benzopyran] | 4.4 |
| Cc1cc([C@@H]2Oc3ccc(O)cc3[C@H]3CCC[C@H]32)ccc1O (racemic) [Example 14, (^+)-2-(4-hydroxy-3-methylphenyl)-6-hydroxy-cyclopentyl[c]3,4-dihydro-2H-1-benzopyran] | 2.6 |
| Cc1cc(O)ccc1[C@H]1Oc2ccc(O)cc2[C@H]2CCC[C@H]21 (racemic) [Example 15, (^+)-2-(2-methyl-4-hydroxyphenyl)-6-hydroxy-cyclopentyl[c]3,4-dihydro-2H-1-benzopyran] | 11 |
| Oc1ccc([C@@H]2Oc3ccc(O)cc3[C@H]3CCC[C@H]32)cc1 (racemic) [Example 16, (^+)-2-(4-hydroxyphenyl)-6-hydroxy-cyclopentyl[c]3,4-dihydro-2H-1-benzopyran] | 1.4 |
| Cc1cc2c(cc1O)[C@H]1CCC[C@H]1[C@@H](c1ccc(O)cc1)O2 (racemic) [Example 19, (^+)-2-(4-hydroxyphenyl)-6-hydroxy-7-methyl-cyclopentyl[c]3,4-dihydro-2H-1-benzopyran] | 2.0 |
| Cc1cc2c(cc1O)[C@H]1CCC[C@H]1[C@H](c1ccc(O)cc1)O2 (racemic) [Example 20, (^+)-2-(4-hydroxyphenyl)-6-hydroxy-7-methyl-cyclopentyl[c]3,4-dihydro-2H-1-benzopyran] | 0.6 |
| C[C@]1(c2ccc(O)cc2)Oc2ccc(O)cc2[C@@H]2CCC[C@@H]21 [Example 28, (^+)-2-methyl-2-(4-hydroxyphenyl)-6-hydroxy-cyclopentyl[c]3,4-dihydro-2H-1-benzopyran] | 4.6 |
| CC[C@]1(c2ccc(O)cc2)Oc2ccc(O)cc2[C@@H]2CCC[C@@H]21 [Example 29, (^+)-2-ethyl-2-(4-hydroxyphenyl)-6-hydroxy-cyclopentyl[c]3,4-dihydro-2H-1-benzopyran] | 1.3 |
| CC(C)[C@]1(c2ccc(O)cc2)Oc2ccc(O)cc2[C@@H]2CCC[C@@H]21 [Example 30, (+)-2-(1-methylethyl)-2-(4-hydroxyphenyl)-6-hydroxy-cyclopentyl[c]3,4-dihydro-2H-1-benzopyran] | 1.4 |
